Key:
[1] = system: choroidal neovascularisation (CNV); assay: Case report: prophylactic triamcinolone to the orbital floor at cataract surgery in a high risk eye; assay type: in vivo, human
Description: A patient in whom prophylactic treatment was used was a person. There was marked macula degeneration in both eyes. They underwent cataract surgery late in July 1995 and developed neovascularisation of the right macula within three weeks. They also had cataract in the left eye but surgery was deferred for fear of developing the same complication. In the left macula there were greater than 5 drusen, some of them larger than 500 μm, and coarse pigment clumping, all high risk features. The cataract in the left eye continued to advance. By August 1997 it was very dense, reducing the visual acuity to 6/24. In spite of the high risk of neovascularisation, they underwent surgery in October 1997. As a prophylactic measure to reduce the risk of subsequent CNV, they received 40 mg of triamcinolone to the orbital floor beneath the eye at the time of surgery. The visual acuity improved to 6/12. They progressed well until June 1998 when they developed left CNV. By this time the effect of the triamcinolone had worn off.

[2] = system: choroidal neovascularisation (CNV); assay: Illustrative case: intravitreal steroid treatment for the prevention of neovascularisation in a patient at high risk; assay type: in vivo, human
Experimental: This case illustrates how intravitreal steroid treatment might be used to prevent CNV in a high risk eye.
A patient presents with recent loss of vision in their right eye. Retinal haemorrhages and exudation are seen in the right macula. […] This is treated on its merits, but the patient is already legally blind (visual acuity less than 6/60) and likely to remain so.
The patient is otherwise healthy and looks as if they might well live another ten or twenty years.
It is explained to the patient that it has been well shown that the risk of developing neovascularisation in their left eye is roughly 90% over the next five years. Should this occur, the chance of saving reading and driving vision with conventional treatments would be less than 25%. The patient is informed that, since the formation of new blood vessels appears in this disease to be linked to chronic, low grade inflammation inside the eye, we believe that an injection of steroid into the eye may reduce the risk of developing neovascularisation in their left eye. […] Serious side effects of the injection are rare. The patient returns in one week, having considered their options, and elects to receive the treatment.
The patient's left eye is anaesthetised and sterilised with topical medications. An injection into the vitreous of 4 mg of triamcinolone (0.1 mL of a 40 mg/mL solution) is performed. The patient is reviewed at 1 and 6 weeks after the injection, then at 3, 6 and 12 months. […] A second injection of triamcinolone is instilled, with the patients consent, and they are reviewed with the same frequency as after the first injection. Two years after the first injection the patient's visual acuity remains 6/9. Further treatments are deferred and the patient is reviewed every 6 months.

[3] = Clinical observations of side effects of intravitreal triamcinolone; assay type: in vivo, human
Description: Intravitreal triamcinolone presents a manageable side effect profile. Of the several hundred patients treated through the Sydney Eye Hospital over the last three years, no case of endophthalmitis, retinal detachment or vitreous haemorrhage has been reported. The commonest side effect is a modest elevation of the intraocular pressure of around 5 mmHg. This has been controlled with glaucoma medication where necessary, although if the optic nerve is not compromised and the pressure is less than 25 mmHg it is often reasonable to observe without treatment. The pressure invariably returns to normal after the drug wears off, which is usually after approximately 6 months.

[4] = system: choroidal neovascularisation in age-related macular degeneration; details: introduced into the vitreous; cited from earlier work
[5] = 12 months after intravitreal injection of 4 mg

Substance: 9-fluoro-11,21-dihydroxy-16,17-[1-(methylethylidine)bis (oxy)]pregna-1,4-diene-3,20-dione [triamcinolone]
- formation of CNV after surgery ([1]; 40 mg to the orbital floor October 1997, left CNV developed June 1998): delayed the formation of CNV after surgery
- visual acuity after cataract surgery ([1]; person, left eye, 40 mg to the orbital floor at surgery, acuity 6/24 before surgery): 6/12
- complications of the procedure [2, 5]: no complications of the procedure have ensued
- evidence of neovascularisation [2, 5]: without evidence clinically or angiographically of neovascularisation
- visual acuity ([2]; 12 months after intravitreal injection of 4 mg, baseline 6/9): 6/9
- visual acuity ([2]; two years after the first injection, second injection at 12 months): 6/9
- cataract in the treated eye ([3]; follow-up to 18 months): this has not been a problem
- elevation of the intraocular pressure (commonest side effect) ([3]; intravitreal): around 5 mmHg
- endophthalmitis, retinal detachment or vitreous haemorrhage ([3]; several hundred patients treated intravitreally over three years): no case
- exudation [4]: control and resorbtion of exudation
- resident immune cell activity [4]: modulates the resident immune cell activity
- visual acuity [4]: improved visual acuity

Reference: patent publication US20050124594A1, “Method of treatment” (priority 1998, published 2005)
